The values that follow come from paper PMC5681660, “Reduced hepatitis B and D viral entry using clinically applied drugs as novel inhibitors of the bile acid transporter NTCP” (Scientific Reports, 2017).

Data set [1] concerns U2OS cells. Put plainly: WST-1 cytotoxicity, wildtype U2OS cells. To be noted: U2OS cells, 2 hours. (In general: Formazan colour is commonly taken as a measure of viable cells.)
Data set [2] relates to U2OS-HA-hNTCP cells. To be noted: 2 hours.
The target of data set [3] is T1, human NTCP (Homo sapiens, UniProt Q14973).
T1 sequence (Q14973 1-349): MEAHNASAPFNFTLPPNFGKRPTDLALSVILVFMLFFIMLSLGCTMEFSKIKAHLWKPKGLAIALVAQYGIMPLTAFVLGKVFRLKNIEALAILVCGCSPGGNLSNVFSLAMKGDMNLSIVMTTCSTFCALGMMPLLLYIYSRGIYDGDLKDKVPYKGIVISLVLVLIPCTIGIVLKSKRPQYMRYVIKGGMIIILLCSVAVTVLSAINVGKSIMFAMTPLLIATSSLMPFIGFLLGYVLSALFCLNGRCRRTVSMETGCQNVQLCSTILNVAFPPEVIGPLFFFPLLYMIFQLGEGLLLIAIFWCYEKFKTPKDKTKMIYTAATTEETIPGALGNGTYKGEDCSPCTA
Put plainly: Taurocholate uptake inhibition studies in U2OS-HA-hNTCP cells. To be noted: for IC50: U2OS-HA-hNTCP cells, concentrations 1 nM to 10 mM, read-out: IC50 for hNTCP-mediated TC uptake; for Taurocholate uptake into U2OS-HA-hNTCP cells (in words): increasing drug concentrations. Further details: HA; expressed in transfected cells. The data set is classed as cell-based. The protocol:
(§1) For MDCK or MDCK-hASBT cells 70.000 cells/well were plated in 24-well plates, followed by 24 hours 10 mM sodium butyrate (Sigma-Aldrich) stimulation the next day. Cells were used in the inhibition studies 24 hours (U2OS cell lines) or 48 hours (MDCK cell lines) later. Inhibition studies with mNTCP transiently transfected cells were conducted 48–72 hours after transfection.
(§2) Medium was aspirated from the wells and cells were washed once with 250 µL uptake buffer. Subsequently, cells were pre-incubated with drug in 150 µL uptake buffer for 10 minutes at 37 °C. Taurocholate uptake was initiated by addition of 100 µL uptake buffer containing taurocholate (final concentration 10 µM TC spiked with tritium-labeled TC) and cells were incubated for 2 minutes at 37 °C. Subsequently, cells were washed 4 times with ice-cold PBS and lysed with 0.05% SDS in water. Radioactivity was measured by liquid scintillation counting.

Data set [4] concerns the target T1, human NTCP. Put plainly: Myrcludex B-FITC binding by confocal microscopy in U2OS-HA-hNTCP cells. Further details: HA; expressed in transfected cells. Conditions: for Myrcludex B-FITC fluorescence / binding to U2OS-HA-hNTCP cells (in words): co-administration with increasing amounts of drug; for ≥50% loss of Myrcludex B binding to hNTCP (concentration): confocal microscopy, 0.2 µM Myrcludex B-FITC, drug 1, 10, 100 µM, concentration at which binding inhibited minimally 50%. The protocol:
After 24 hours, medium was aspirated and cells were washed once with 300 µl Leibovitz’s L-15 Medium (Invitrogen). A 30 minute incubation period followed in which all cells were incubated with 0.2 µM Myrcludex B-FITC with or without drug (1, 10, 100 µM) and Hoechst (1/1000) in 300 µL Leibovitz’s L-15 Medium. Cells were washed twice with Leibovitz’s L-15 Medium and subsequently 400 µL Leibovitz’s L-15 Medium was added. Live cell fluorescent imaging was performed using a Leica SP8X-SMD confocal microscope with fully enclosed incubation at 37 °C. A 63x oil objective was used and images were captured while the cells were consecutively excited at 490 nm (FITC) 350 nm (Hoechst). ImageJ software (National Insititutes of Health, Bethesda, MD) was employed for data analysis.

Data set [5] in a line: WST-1 cytotoxicity, wildtype U2OS cells. Conditions: human; for viability at 2 h, 1 µM / viability at 2 h, 100 µM / viability at 2 h, 10 µM: wildtype U2OS cells.
The subject of data set [6] is HDV. Put plainly: HDV infection of HepaRG cells (HDAg immunofluorescence). To be noted: HDAg positive cells, day 5; concentration-dependent. The data set is classed as cell-based, hepatitis delta virus.
In data set [7] the test system is HBV. Conditions: for HBV infection in HepaRG cells (in words): HBeAg, HBsAg, HBcAg, concentration-dependent.
Data set [8] in a line: in vitro. To be noted: human.
In data set [9] the target is T1, human NTCP. Description: Screening taurocholate uptake assay (96-well, [14C]taurocholate, 10 µM drug). To be noted: for Ranking score: ranking over the functional and the binding screening assay; for B-score functional assay: screening taurocholate uptake, 10 µM drug.
The target in data set [10] is T2, mouse NTCP (Mus musculus, UniProt O08705).
T2 construct: expressed in transfected cells; host or cells: U2OS (transient transfection, PEI)
T2 sequence (O08705 1-362): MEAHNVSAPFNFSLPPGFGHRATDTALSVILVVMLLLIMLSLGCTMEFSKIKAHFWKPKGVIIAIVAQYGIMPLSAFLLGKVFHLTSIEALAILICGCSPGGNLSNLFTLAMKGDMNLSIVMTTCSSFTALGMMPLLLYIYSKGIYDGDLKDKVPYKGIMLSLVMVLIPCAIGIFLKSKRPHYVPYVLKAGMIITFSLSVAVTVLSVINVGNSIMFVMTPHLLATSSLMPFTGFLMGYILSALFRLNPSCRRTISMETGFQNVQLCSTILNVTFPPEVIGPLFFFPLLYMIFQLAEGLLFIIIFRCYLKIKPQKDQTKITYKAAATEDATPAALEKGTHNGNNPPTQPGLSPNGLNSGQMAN
Put plainly: Taurocholate uptake in U2OS cells transiently transfected with mouse NTCP. The class given is cell-based. Conditions: at the calculated IC50 value for hNTCP. The protocol:
U2OS and MDCK cells were grown in Dulbecco’s modified Eagle’s medium (DMEM, Sigma-Aldrich), supplemented with 10% FCS (Gibco), 1% L-glutamine (Lonza), and 1% penicillin/streptomycin (Lonza). […] Transient transfection of U2OS cells with mouse NTCP (mNTCP) was done with PEI reagent (Brunschwig, Basel, Switzerland). Shortly, U2OS cells were seeded one day prior to transfection in 24-well plates. On the day of transfection, 0.5 µg DNA was mixed with 100 µl unsupplemented DMEM and 3 µg/µl PEI. After 10–15 minute incubation at RT, 20 µl of the transfection mix was added to each 24-well. Transfected cells were used in further experiments 48–72 hours later. Cell lines were passaged twice a week at a confluence of 80%, and incubated in a humidified atmosphere of 37 °C + 5% CO2.
as §1, §2

Entries after “also recorded” stand apart in the source; their conditions may differ. Like-named read-outs stand apart in the source and are kept apart here.

As a reminder, the IC50 is the concentration that gives 50% inhibition. For the compound `CS(=O)(=O)O.Cc1c(O)cccc1C(=O)N[C@@H](CSc1ccccc1)[C@H](O)CN1C[C@H]2CCCC[C@H]2C[C@H]1C(=O)NC(C)(C)C` [Nelfinavir Mesylate Hydrate], the “cell viability by WST-1” value was 105.9 ± 8.4% in data set [1] (1 µM); 102 ± 10.7% in data set [1] (10 µM); 95.1 ± 5.6% in data set [1] (100 µM); 105.3 ± 7.1% in [2] (1 µM); 99.8 ± 5.2% in data set [2] (10 µM); 104.8 ± 4.5% in data set [2] (100 µM). In addition, the 50% inhibitory concentration (IC50) in [3] worked out at 134 µM. Besides, the “Taurocholate uptake into U2OS-HA-hNTCP cells (in words)” value in data set [3] was “reduced in a dose-dependent fashion”. The “Myrcludex B-FITC fluorescence / binding to U2OS-HA-hNTCP cells (in words)” value (“Myrcludex B-FITC fluorescence / binding” for short) in data set [4] is reported as “reduced Myrcludex B-FITC fluorescence”. Moreover, the “≥50% loss of Myrcludex B binding to hNTCP (concentration)” value (from here on “≥50% loss of Myrcludex B binding”) in [4] was at least 100 µM.

In general, viability refers to a read-out of living cells in per cent, often relative to untreated cells. As to `O=C(O)Cc1cc(I)c(Oc2ccc(O)c(I)c2)c(I)c1` [TRIAC, 3,3′,5-Triiodothyroacetic acid], in data set [5], the viability at 2 h, 1 µM was determined as 100 ± 7.5% and the viability at 2 h, 100 µM came to 81.6 ± 3.8%. Moreover, the “HDV infection in HepaRG cells (in words)” value in [6] is “reduced HBV/HDV infection; also recorded: reduce”. In addition, in data set [7], the “HBV infection in HepaRG cells (in words)” value was “reduced HBV/HDV infection; also recorded: reduce”. In [7] (HepaRG cells, day 10 post HBV infection, 50 µM), the “number of HBcAg positive stained cells” value is on record as “mild reduction”. For the same compound, in [8], the viability at 2 h, 1 µM came to 109 ± 4.1%; the viability at 2 h, 10 µM is 105 ± 2.1%; the viability at 2 h, 100 µM came to 86.3 ± 4.9%.

Regarding `Nc1c2c(nc3ccccc13)CCCC2O.O=C(O)/C=C\C(=O)O` (stereo not shown) [Hydroxytacrine Maleate], the “cell viability by WST-1” value in [1] (1 µM) is 107.6 ± 15.7%; in [1] (10 µM), 100.7 ± 7.1%; in [1] (100 µM), 95.8 ± 3.9%; in data set [2] (1 µM), 105.6 ± 1.2%; in [2] (10 µM), 102 ± 8.3%; in data set [2] (100 µM), 96.7 ± 5.9%. In [3], the IC50 turned out to be 4200 µM. Moreover, the “outcome of follow-up screening of hits found in only one of the two screens” value in data set [3] (follow-up of TC uptake and Myrcludex B binding) is “false positives”. The “Taurocholate uptake into U2OS-HA-hNTCP cells (in words)” value in data set [3] was “not”. The “Myrcludex B-FITC fluorescence / binding” value in [4] is “not”. For the same compound, the “≥50% loss of Myrcludex B binding” value in [4] is reported as “Not confirmed”.

For `CCCCC1=NC2(CCCC2)C(=O)N1Cc1ccc(-c2ccccc2-c2nnn[nH]2)cc1` [irbesartan, reference compound], the “HDV infection in HepaRG cells (in words)” value in [6] is listed as “reduce”. In addition, in data set [7], the “HBV infection in HepaRG cells (in words)” value is on record as “reduce”. Besides, the “concentration effective in reducing HBeAg and HBsAg production” value in [7] (HepaRG cells infected with HBV, supernatant day 7 to 10) is given as 17 µM. Moreover, the “NTCP inhibition in the screen (in words)” value in [9] (10 µM, both screening assays) is listed as “confirmed NTCP inhibition”. Besides, the “position among the hits of the screen (combined ranking of both screening assays)” value in [9] (1280 drugs at 10 µM, TC uptake and Myrcludex B binding screens combined) is recorded as at most 150. In [9], this compound yielded a Ranking score of 197.737 and a B-score functional assay of -3.733.

On to `O=C(O)c1ccccc1Nc1cccc(C(F)(F)F)c1` [Flufenamic Acid, Flufenamic acid], for which, in data set [5], the viability at 2 h, 1 µM came out at 109 ± 9.1%; the viability at 2 h, 10 µM is 108 ± 8.5%; the viability at 2 h, 100 µM is 104 ± 3.6%. In data set [10], the “inhibition of mouse Ntcp-mediated taurocholate uptake compared with human NTCP” value is “more capable of inhibiting mouse Ntcp; also recorded: more potent in inhibiting mouse NTCP”. Also, in data set [8] (U2OS-HA-hNTCP cells), the viability at 2 h, 1 µM is 125 ± 15.2%; the viability at 2 h, 10 µM was found to be 118 ± 9.6%; the viability at 2 h, 100 µM worked out at 107 ± 9.6%. Moreover, in [3], the IC50 amounted to 10 µM and the “Taurocholate uptake into U2OS-HA-hNTCP cells (in words)” value is recorded as “reduced in a dose-dependent fashion”. In data set [4], the “Myrcludex B-FITC fluorescence / binding” value was “reduced Myrcludex B-FITC fluorescence” and the “≥50% loss of Myrcludex B binding” value is on record as at least 100 µM. The “≥50% loss of Myrcludex B binding” value in [4] (listed as Flufenamic acid) is listed as at most 100 µM. For the same compound, in data set [9], the Ranking score is given as 48.7852 and the B-score functional assay is -5.588.

Take `Cc1c(Cl)cccc1Nc1ccccc1C(=O)O` [Tolfenamic Acid, Tolfenamic acid]: in data set [5], the viability at 1 µM came out at 94.7 ± 6.3%, the viability at 10 µM was found to be 105 ± 11.7% and the viability at 100 µM was 82.1 ± 4.8%. Besides, the “inhibition of mouse Ntcp-mediated taurocholate uptake compared with human NTCP” value in [10] is listed as “inhibited similarly as human NTCP”. In [8] (U2OS-HA-hNTCP cells), the viability at 2 h, 1 µM worked out at 116 ± 10.3%; the viability at 2 h, 10 µM was 118 ± 13%; the viability at 2 h, 100 µM was 107 ± 12.4%. In data set [3], the half-inhibitory concentration (IC50) amounted to 12.5 µM and the “Taurocholate uptake into U2OS-HA-hNTCP cells (in words)” value is reported as “reduced in a dose-dependent fashion”. In addition, in data set [4], the “Myrcludex B-FITC fluorescence / binding” value is recorded as “reduced Myrcludex B-FITC fluorescence” and the “≥50% loss of Myrcludex B binding” value was at least 100 µM. Further, the “≥50% loss of Myrcludex B binding” value in data set [4] (listed as tolfenamic acid) was at most 100 µM. Further, in [9], the Ranking score is given as 28.5657 and the B-score functional assay is given as -4.169.

`Cc1cc(-n2c(=O)[nH]c(=O)n(C)c2=O)ccc1Oc1ccc(SC(F)(F)F)cc1` [Toltrazuril]: in data set [5], the viability at 2 h, 1 µM came out at 115 ± 6.1%; the viability at 2 h, 10 µM is 109 ± 11.8%; the viability at 2 h, 100 µM was determined as 101 ± 3.6%. Besides, in [8] (U2OS-HA-hNTCP cells), the viability at 2 h, 1 µM came to 100 ± 9.9%; the viability at 2 h, 10 µM was 109 ± 12.9%; the viability at 2 h, 100 µM was found to be 105 ± 11.4%. Besides, in data set [3], the concentration for half-maximal inhibition (IC50) amounted to 84.1 µM and the “Taurocholate uptake into U2OS-HA-hNTCP cells (in words)” value is listed as “reduced in a dose-dependent fashion”. In [4], the “Myrcludex B-FITC fluorescence / binding” value is “reduced Myrcludex B-FITC fluorescence” and the “≥50% loss of Myrcludex B binding” value is on record as at least 10 µM. Further, in data set [9], the Ranking score worked out at 35.4965 and the B-score functional assay is -3.14.
